From patent EP3954371B1, “ANTI-ACETYLCHOLINESTERASE ACTIVE COMPOSITION IN CAULIS MAHONIAE AND SCREENING METHOD THEREFOR AND APPLICATION THEREOF” (Shenzhen Institute for Drug Control (Shenzhen Testing …, priority 2019, dated 2021)

Key:
AChE [1] = molecular target: T1, AChE (Homo sapiens, UniProt P22303); test: synergistic effect of combined active components (FIC) by AChE assay method; assay type: biochemical; conditions: for effect of combinations when used as the first alkaloid: first alkaloid diluted stepwise, other alkaloids fixed at IC30; for IC20 / IC80 / IC90 / IC50: first compound diluted, added compounds fixed at IC30, unit not in table; for IC20: read-out: IC Value (Standard Deviation) IC20; for IC80: read-out: IC Value (Standard Deviation) IC80; for IC90: read-out: IC Value (Standard Deviation) IC90; for IC50: read-out: IC Value (Standard Deviation) IC50 (converted)
T1 construct: purchased Sigma
Protocol: One pharmaceutical component, compound A, was selected and diluted step by step according to 1:1; the concentration of a second pharmaceutical component, compound B, was fixed to IC30; based on a size of a fractional inhibitory concentration (FIC) value, the concentration of compound A was fixed, the concentration of pharmaceutical compound B was changed, and the FIC value was determined.
Fractional effects (FEs) of the two compounds are as follows: FEA = IC50 (A+B)/IC50 (A) [formula] FEB = IC50 (A+B)/IC50 (B) [formula] FIC = FEA + FEB [formula]
By analogy, all possible combinations were calculated. Table 4 Dilution concentration and fold

AChE [2] = molecular target: T1, AChE; test: biochemical; conditions: mean ± standard deviation, repeated three times; 10 min at 37 °C, absorbance at 405 nm
Protocol: For the reaction system, see Table 3. The specific steps are described below.
140 µL of phosphate buffer (PBS, 0.1 mol/L, pH = 7.4), 20 µL of AChE (0.303 U/mL) and 20 µL of sample solution were added in sequence to a 96-well plate, mixed evenly, and added with 10 µL of DTNB (3.3 mM) and 10 µL of acetylthiocholine iodide (ATCI) (15 mM). They were mixed evenly and incubated for 10 min at 37 °C, then measured absorbance at 405 nm.
The sample was replaced with PBS in a blank enzyme group. The sample was replaced with PBS in a blank enzyme-free group. The enzyme solution was replaced with PBS in the sample control group.
The inhibitory rate of the sample against AChE activity is calculated by the following formula: Inhibitory rate = [1−(Asample−Asample control)/(Ablank enzyme−Ablank enzyme−free)] × 100% [formula]
The median inhibitory concentration of AChE was calculated by testing inhibitory rates at different sample concentrations. […] Table 3 Anti-AChE activity screening method

AChE [3] = molecular target: T1, AChE; assay type: binding; conditions: 20 µg/mL in ammonium acetate buffer (10 mM, pH = 7.4) for standards; FIGS. 4A, 4B, 5
Protocol: In a first step, a mobile phase, the ammonium acetate buffer (10 mM, pH = 7.4), was provided by a peristaltic pump at a flow rate of 5 µL/min and a sample was injected at a volume of 100 µL, and the process lasted for 40 min, then fractions were collected.
In a second step, the mobile phase was changed from the ammonium acetate buffer (10 mM, pH = 7.4) to methanol and provided at a flow rate of 20 µL/min and target components were dissociated from proteins, and the process lasted for 20 min, then fractions were collected.
A blank control monolithic column, Control-ICER, was set by the same operation method and the corresponding fractions were collected.
The collected fractions were blown to dryness with N2, dissolved in 100 µL of methanol, and analyzed through LC-MS.
LC-MS conditions: a chromatographic column Thermo Acclaim TM C18 (4.6 mm× 250 mm, 5 µm); mobile phases where acetonitrile was mobile phase A and 0.08% (v/v) formic acid and a 2 mM ammonium acetate solution were mobile phase B; a flow rate of 1.0 mL/min; an injection volume of 3 µL; a column temperature of 25 °C; and a detection wavelength of 280 nm. […]

T1 sequence (P22303 32-614): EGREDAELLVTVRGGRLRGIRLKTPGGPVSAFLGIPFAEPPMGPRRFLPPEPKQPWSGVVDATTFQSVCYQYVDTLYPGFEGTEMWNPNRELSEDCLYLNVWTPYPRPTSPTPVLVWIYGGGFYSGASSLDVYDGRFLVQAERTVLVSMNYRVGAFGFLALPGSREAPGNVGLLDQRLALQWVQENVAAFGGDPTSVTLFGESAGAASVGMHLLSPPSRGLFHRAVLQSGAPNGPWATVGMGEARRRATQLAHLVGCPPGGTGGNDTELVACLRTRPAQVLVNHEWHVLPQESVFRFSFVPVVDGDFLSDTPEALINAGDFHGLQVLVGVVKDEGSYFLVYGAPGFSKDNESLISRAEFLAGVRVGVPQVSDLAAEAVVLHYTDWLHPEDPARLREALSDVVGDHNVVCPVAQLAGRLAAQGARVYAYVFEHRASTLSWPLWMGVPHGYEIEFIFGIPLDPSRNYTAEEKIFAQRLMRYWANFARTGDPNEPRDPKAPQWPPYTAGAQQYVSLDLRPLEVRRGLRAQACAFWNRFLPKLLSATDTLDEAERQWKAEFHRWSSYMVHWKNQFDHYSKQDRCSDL

COc1ccc2cc3[n+](cc2c1OC)CCc1cc2c(cc1-3)OCO2 [Ber, berberine]
effect of combinations when used as the first alkaloid (AChE [1]): only the irrelevant effect or the antagonistic effect | IC20 (AChE [1]): 0.26 µg/mL | IC80 (AChE [1]): 24.1 µg/mL | IC90 (AChE [1]): 50.2 µg/mL

COc1cc2c(cc1O)-c1cc3ccc(OC)c(OC)c3c[n+]1CC2 [Col, columbamine]
effect of combinations when used as the first alkaloid (AChE [1]): significant synergistic effect | IC20 (AChE [1]): 0.18 µg/mL | IC50 (AChE [1]): 2.75 µM | IC80 (AChE [1]): 4.8 µg/mL | IC90 (AChE [1]): 12.5 µg/mL | IC50 (AChE [2]): 2.75 µM

COc1cc2c(cc1O)CC[n+]1cc3c(OC)c(OC)ccc3cc1-2 [Jat, jatrorrhizine]
effect of combinations when used as the first alkaloid (AChE [1]): significant synergistic effect | IC20 (AChE [1]): 0.39 µg/mL | IC50 (AChE [1]): 10.3 µM | IC80 (AChE [1]): 31.4 µg/mL | IC90 (AChE [1]): 63.2 µg/mL | IC50 (AChE [2]): 10.3 µM

COc1cc2c(cc1OC)-c1cc3ccc(OC)c(OC)c3c[n+]1CC2 [Pal, palmatine]
effect of combinations when used as the first alkaloid (AChE [1]): only the irrelevant effect or the antagonistic effect | IC20 (AChE [1]): 0.1 µg/mL | IC50 (AChE [1]): 4.31 µM | IC80 (AChE [1]): 22.8 µg/mL | IC90 (AChE [1]): 48.3 µg/mL | IC50 (AChE [2]): 4.31 µM

CCCC(=O)Nc1ccc(OCC(O)CNC(C)C)c(C(C)=O)c1 (centres unmarked) [acebutolol]
retention on AChE-ICER / Control-ICER (specific binding) (AChE [3]): remains neither on AChE-ICER nor on enzyme-inactive Control-ICER
